Source: patent publication US20110288151A1, “METHODS OF CHARACTERIZING BREAST CANCER AND IDENTIFYING TREATMENTS FOR SAME” (The Trustees of the University of Pennsylvania, priority 2008, published 2011)

Columns and labels:
Rac [1] = assay: Rac-GTP pull-down, HRG-treated MCF-7 cells; format: cell-based, human; settings: HRG 100 ng/ml, 5 min, pharmacological inhibitor
Procedure: FIG. […] Rac-GTP levels were determined by a Rac-GTP pull-down assay of lysates of the treated cells. […]
As described above, Gβγ subunits are known to activate PI3Kγ. As Rac activation by HRG is affected by PTX as shown in Example 10, the involvement of PI3Kγ in the response was investigated.
To further investigate the role of PI3Kγ, PI3Kγ depleted MCF-7 cell lines were generated using PI3Kγ (#1 and #2) and non-target sequence (NTS) control shRNA lentiviruses (Sigma) (FIG. 16B).
To determine whether CXCR4 is involved in HRG responses, CXCR4 expression was knocked down using RNAi in MCF-7 cells. […] Such a mechanism has important implications in tumorigenesis and metastatic dissemination.

Rac1 = assay: Rac1-GTP GST pull down, HRG-treated MCF-10A cells; format: cell-based, human; settings: serum-starved MCF-10A cells, HRG 100 ng/ml 5 min, pretreatment (1 h; PTX 24 h)
Procedure: The image of the immunoblot depicts Rac1-GTP levels as determined by a GST pull down assay of serum-starved MCF-10A cells treated with HRG (100 ng/ml, 5 min), with or without pretreatment with PI3K inhibitor wortmannin, EGFR inhibitor AG1478, PI3Kγ inhibitor 5-quinoxalin-6-ylmethylene-thiazolidine-2,4-dione (1 mM, 1 h), or PTX (24 h) (FIG. 17).

P-Rex1 = P-Rex1 sub-cellular localization in MCF-7 cells (fluorescence microscopy); format: cell-based, human; settings: HRG 10 ng/mL 10 min, Wortmannin 1 μM, antibodies 10 μg/mL 1 hr
Procedure: Cells were then fixed and stained with the antibody of Example 1 to detect P-Rex1 and subject to staining with a secondary Cy2-conjugated antibody, and visualized with fluorescence microscopy. […] (FIG. 12A and FIG. 12B).
To test whether this effect of HRG on P-Rex1 localization was dependent on PI3K, MCF-7 breast cancer cells were serum starved for 48 hours, treated for 10 minutes with HRG (10 ng/mL), with or without Wortmannin (1 μM), an anti-ErbB3 blocking antibody (10 μg/mL, 1 hr) or control IgG and stained and visualized (FIG. 12B).

T-47D cells = assay: Membrane ruffles in T-47D cells; format: cell-based, human; settings: T-47D cells treated with HRG or EGF
Procedure: HRG is known to cause morphological changes, including the formation of lamellipodia and membrane ruffles.
FIG. 14E is a bar graph depicting reduced colony formation, in response to treatment with HRG (10 ng/mL), in the P-Rex1 depleted cell lines of FIG. 14A as compared to control cells.

Rac [2] = assay: Rac activation by HRG or EGF in breast cancer cell lines (GST-Raf-PBD pull-down); format: cell-based; settings: various breast cancer cell lines, HRG 10 ng/mL or EGF 100 ng/mL, 0-5 minutes, n=3

O=C1NC(=O)C(=Cc2ccc3nccnc3c2)S1 [5-quinoxalin-6-ylmethylene-thiazolidine-2,4-dione] was tested, and the “Rac activation by HRG” value (Rac [1]) was “dose-dependently reduced Rac activation by HRG” and the “sensitivity of Rac1 activation by HRG” value (Rac1) was “insensitive”.

With CC(C)(C)n1nc(-c2ccc(Cl)cc2)c2c(N)ncnc21 [PP2] the “effect on HRG-induced P-Rex1 localization” value (P-Rex1) was “did not have such an effect”.

COc1cc2ncnc(Nc3cccc(Cl)c3)c2cc1OC [AG1478] was tested, and the “sensitivity of Rac1 activation by HRG” value (Rac1) was “blocked Rac activation”.

In the case of “EGF: epidermal growth factor (NSDSECPLSHDGYCLHDGVCMYIEALDKYACNCVVGYIGERCQYRDLKWWELR; UniProt P01133 971-1023, looked up)”, the “ruffle formation on ligand treatment” value (T-47D cells) is reported as “characteristic ruffles were observed” and the Rac activation (Rac [2]) is reported as “activate Rac”.
